Assay results as given in patent US12180187B2, “1-phenyl-5-azinylpyrazolyl-3-oxyalkyl acids and their use for controlling unwanted plant growth” (BAYER AKTIENGESELLSCHAFT, priority 2019, dated 2024).

Tests used:
ECHCG = test: Post-emergence action against ECHCG, 1.28 kg/ha; type: in vivo, Echinochloa crus-galli; details: dosage 1280 g/ha, visual rating about 3 weeks after treatment vs untreated controls
Method in brief: (§1)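 Greenhouse pot test, sandy loam; weeds sprayed post-emergence at one-leaf stage (2–3 weeks after sowing) with WP or EC formulation plus 0.5% additive, 600 l/ha water. Visual rating after about 3 weeks versus untreated controls, 100% = plants dead, 0% = like control.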

MATIN [1] = test: Post-emergence action against MATIN, 1.28 kg/ha; type: in vivo, Tripleurospermum inodorum (Matricaria inodora); details: dosage 1280 g/ha, visual rating about 3 weeks after treatment vs untreated controls (100% = plants died)
Method in brief: as §1

KCHSC [2] = test: Post-emergence action against KCHSC, 1.28 kg/ha; type: in vivo, Bassia scoparia; details: dosage 1280 g/ha, visual rating about 3 weeks after treatment vs untreated controls (100% = plants died)
Method in brief: as §1

PHBPU [3] = test: Post-emergence action at 320 g/ha against PHBPU; type: in vivo; details: visual rating about 3 weeks after treatment vs untreated controls
Method in brief: (§2)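 Weeds were sown in sandy loam, grown in a greenhouse and sprayed at the one-leaf stage, 2 to 3 weeks after sowing, with WP or EC formulations as aqueous suspension or emulsion plus 0.5% additive at 600 l/ha water. Activity was rated visually after about 3 weeks against untreated controls (100% = plants dead, 0% = like control).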

SETVI = test: Post-emergence action at 320 g/ha against SETVI; type: in vivo, Setaria viridis; details: visual rating about 3 weeks after treatment vs untreated controls
Method in brief: as §2

VERPE = test: Pre-emergence action against VERPE, 1280 g/ha; type: in vivo, Veronica persica; details: scored visually after about 3 weeks vs untreated controls (100% = plants have died)
Method in brief: (§3)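 Sandy loam pots, seeds covered with soil; aqueous WP/EC spray on covering soil, 0.5% additive, 600 L/ha. Greenhouse growth, good conditions. Readout: visual % activity at ~3 weeks (0% = like control, 100% = dead).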

MATIN [4] = test: Pre-emergence action at 320 g/ha against MATIN; type: in vivo, Tripleurospermum inodorum (Matricaria inodora); details: visual scoring after about 3 weeks vs untreated controls
Method in brief: (§4)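 Visual scoring in percent against untreated controls, about 3 weeks after treatment, where 100% means dead plants and 0% means no difference. Compounds were applied as aqueous suspension or emulsion (WP or EC, plus 0.5% additive) onto soil covering freshly sown seeds, at 600 l/ha water.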

KCHSC [5] = test: Pre-emergence action against KCHSC, 1280 g/ha; type: in vivo, Bassia scoparia; details: scored visually after about 3 weeks vs untreated controls (100% = plants have died)
Method in brief: as §3

ALOMY [6] = test: Post-emergence action against ALOMY, 320 g/ha; type: in vivo, Alopecurus myosuroides; details: dosage 320 g/ha, visual rating about 3 weeks after treatment vs untreated controls (100% = plants died)
Method in brief: as §2

ALOMY [7] = test: Pre-emergence action against ALOMY, 1280 g/ha; type: in vivo, Alopecurus myosuroides; details: visual scoring after about 3 weeks vs untreated controls, 100% = plants have died, 0% = like control plants
Method in brief: as §3

AMARE = test: Post-emergence action at 320 g/ha against AMARE; type: in vivo, Amaranthus retroflexus; details: visual rating about 3 weeks after treatment vs untreated controls
Method in brief: as §2

PHBPU [8] = test: Pre-emergence action at 320 g/ha against PHBPU; type: in vivo; details: visual scoring after about 3 weeks vs untreated controls
Method in brief: as §4

ABUTH = test: Post-emergence action at 320 g/ha against ABUTH; type: in vivo, Abutilon theophrasti; details: visual rating about 3 weeks after treatment vs untreated controls
Method in brief: as §2

DIGSA = test: Pre-emergence action against DIGSA, 1280 g/ha; type: in vivo, Digitaria sanguinalis; details: visual scoring after about 3 weeks vs untreated controls, 100% = plants have died, 0% = like control plants
Method in brief: as §3

POLCO = test: Post-emergence action at 320 g/ha against POLCO; type: in vivo, Fallopia convolvulus (Polygonum convolvulus); details: visual rating about 3 weeks after treatment vs untreated controls
Method in brief: as §2

Row | SMILES | Post-emergence action against ECHCG (ECHCG) [%] | Post-emergence action against MATIN (MATIN [1]) [%] | Post-emergence action against KCHSC (KCHSC [2]) [%] | Post-emergence action against PHBPU in % (PHBPU [3]) [%] | Post-emergence action against SETVI in % (SETVI) [%] | Pre-emergence action against VERPE (VERPE) [%] | Pre-emergence action against MATIN in % (MATIN [4]) [%] | Pre-emergence action against KCHSC (KCHSC [5]) [%] | Post-emergence action against ALOMY (ALOMY [6]) [%] | Pre-emergence action against ALOMY (ALOMY [7]) [%] | Post-emergence action against AMARE in % (AMARE) [%] | Pre-emergence action against PHBPU in % (PHBPU [8]) [%] | Post-emergence action against ABUTH in % (ABUTH) [%] | Pre-emergence action against DIGSA (DIGSA) [%] | Post-emergence action against POLCO in % (POLCO) [%]
1 | COC(=O)[C@@H](C)Oc1nn(-c2ccccc2)c(-c2cccnc2)c1Br [VII-008] | 100 | 90 | 90 | 80 | 100 | 100 | 100 | 90 | 100 | 100 | 90 | 80 | 90 | 100 | 
2 | COC(=O)COc1nn(-c2ccccc2)c(-c2ccc(F)nc2)c1Br [VII-018] | 90 | 90 | 90 | 90 | 80 | 100 | 90 | 90 | 90 | 100 | 90 |  | 80 | 100 | 90
3 | COC(=O)C(C)Oc1nn(-c2ccccc2)c(-c2ccc(F)nc2)c1Br (stereo not drawn) [VII-026] | 90 | 90 | 90 |  | 90 | 100 | 90 | 100 | 100 | 100 | 90 |  | 80 | 100 | 90
4 | COC(=O)COc1nn(-c2ccccc2F)c(-c2ccc(F)nc2)c1F [VII-040] | 100 | 90 | 90 | 90 | 100 | 100 | 100 |  | 100 | 100 | 90 |  | 90 | 100 | 90
5 | COC(=O)CCOC(=O)COc1nn(-c2ccccc2F)c(-c2ccc(F)nc2)c1Br [VII-111] | 100 | 100 |  | 80 | 90 | 100 | 90 |  | 100 | 100 | 90 |  | 80 | 100 | 90
